Data from US12403135B2, “4H-pyrrolo[3,2-c]pyridin-4-one derivatives” (Bayer Aktiengesellschaft, priority 2019, dated 2025).

Legend:
Assay type in all cases: cell-based
Ba/F3-EGFR L861Q cells = assay: BA/F3 (EGFR L861Q) proliferation, uncommon EGFR mutation; details: Table 10, classical activating and uncommon EGFR mutations
Protocol: (§1) Plates were incubated at 37° C. for 48 h. Retrovirus was harvested by filtering the media supernatant through a 0.45 μm filter.
(§2) Ba/F3 cells purchased from DSMZ were grown in RPMI+10% FBS+10 ng/mL IL-3 and infected with filtered retroviral supernatant at a 1:2 dilution. Polybrene was added to a concentration of 8 μg/mL, plates were spun for 90 min, and incubated overnight at 37° C. 2 μg/mL puromycin was added to the infected cells 24 h after infection and cells were continually grown in the presence of puromycin and 10 ng/mL IL-3. Following stably expressing Ba/F3 cell lines were generated: Ba/F3-EGFR-V769_D770 insASV, Ba/F3-EGFR-D770_N771 insNPG, Ba/F3-EGFR-N771_P772 insH, Ba/F3-EGFR-H773_V774 insNPH, Ba/F3-EGFR-D770_N771 insSVD C797S, Ba/F3-EGFR-E746_A750del C797S, Ba/F3-EGFR-L858R C797S, Ba/F3-EGFR L861Q and Ba/F3-ERBB2-A775_G776insYVMA (Ba/F3-vector-control).

[1] = system: Ba/F3-EGFR-E746_A750del C797S cells; assay: BA/F3 (EGFR E746_A750del C797S) proliferation, acquired resistance; details: Table 11, acquired resistance space
Protocol: as §1, §2

[2] = system: Ba/F3-EGFR-L858R C797S cells; assay: BA/F3 (EGFR L858R C797S) proliferation, acquired resistance; details: Table 11, acquired resistance space
Protocol: as §1, §2

PC9 cells (EGFRex19del) = assay: PC9 cell proliferation, Cell Titer Glo, 72 h
Protocol: (§3) PC9 cells were purchased from ATCC. 400 PC9 cells per well were seeded in growth medium (DMEM, 10% FCS) in a 384-well plate (CORNING #3571). Seed reference plate for time zero determination on the same day. All plates were incubated overnight at 37° C. After 24 hours, test compound were added in 7-step dilution using HP Compound printer and incubated at 37° C. for 72 h. After 3 days, 30 μL/well CTG solution (Promega Cell Titer Glo solution; catalog #G755B and G756B) were added to each well, incubated for 30 minutes and the plate were read on PheraStar. Proliferation is calculated after subtracting time zero luminescence values from day 4 values and comparing to untreated wells. The IC50 values were determined using the four parameter fit.

[3] = target: Ba/F3-ERBB2-A775_G776insYVMA cells (Homo sapiens, UniProt P04626, DUP772-775, cells depend on it); assay: BA/F3 (ERBB2 A775_G776 insYVMA) proliferation; details: Table 12; read-out: BA/F3 (ERBB2 A775_G776 insYVMA) IC50
Chain of Ba/F3-ERBB2-A775_G776insYVMA cells (P04626 with tags, fused parts or gaps DUP772-775): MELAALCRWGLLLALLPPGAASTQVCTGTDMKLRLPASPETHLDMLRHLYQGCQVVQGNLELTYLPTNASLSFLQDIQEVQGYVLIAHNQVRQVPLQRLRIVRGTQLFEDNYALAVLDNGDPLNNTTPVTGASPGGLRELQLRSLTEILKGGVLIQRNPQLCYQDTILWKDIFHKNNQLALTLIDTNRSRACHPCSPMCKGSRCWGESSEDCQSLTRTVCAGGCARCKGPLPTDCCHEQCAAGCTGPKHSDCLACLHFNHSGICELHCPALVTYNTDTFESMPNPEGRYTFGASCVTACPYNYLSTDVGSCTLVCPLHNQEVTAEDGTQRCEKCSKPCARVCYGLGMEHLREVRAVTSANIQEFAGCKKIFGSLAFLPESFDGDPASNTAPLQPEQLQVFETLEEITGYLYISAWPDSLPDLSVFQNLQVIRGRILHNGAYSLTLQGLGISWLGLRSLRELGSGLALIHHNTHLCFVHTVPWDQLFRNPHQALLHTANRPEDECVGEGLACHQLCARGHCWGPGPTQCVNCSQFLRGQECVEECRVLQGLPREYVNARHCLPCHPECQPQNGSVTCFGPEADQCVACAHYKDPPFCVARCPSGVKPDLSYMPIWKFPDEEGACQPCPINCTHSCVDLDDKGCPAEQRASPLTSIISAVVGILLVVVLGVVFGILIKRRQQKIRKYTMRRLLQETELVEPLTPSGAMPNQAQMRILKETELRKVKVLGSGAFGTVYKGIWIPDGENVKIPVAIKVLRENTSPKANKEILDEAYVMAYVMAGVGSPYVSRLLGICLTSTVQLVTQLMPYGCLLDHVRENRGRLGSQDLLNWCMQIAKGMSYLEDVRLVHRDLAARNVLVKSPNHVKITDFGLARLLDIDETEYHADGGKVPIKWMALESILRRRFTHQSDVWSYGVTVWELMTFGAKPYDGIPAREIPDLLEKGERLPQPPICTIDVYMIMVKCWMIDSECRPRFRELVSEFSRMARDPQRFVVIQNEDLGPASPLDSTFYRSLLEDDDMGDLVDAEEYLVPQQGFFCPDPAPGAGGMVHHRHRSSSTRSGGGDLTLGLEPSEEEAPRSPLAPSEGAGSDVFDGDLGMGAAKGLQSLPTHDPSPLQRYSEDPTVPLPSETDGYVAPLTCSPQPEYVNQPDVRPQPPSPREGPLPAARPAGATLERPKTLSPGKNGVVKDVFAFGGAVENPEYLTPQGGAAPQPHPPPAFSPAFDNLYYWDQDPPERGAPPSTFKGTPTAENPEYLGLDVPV
Protocol: as §1, §2

[4] = system: Ba/F3-EGFR-D770_N771 insSVD C797S cells; assay: BA/F3 (EGFR D770_N771 insSVD C797S) proliferation, acquired resistance; details: Ba/F3 EGFR-D770-N771ins_SVD; Table 11; acquired resistance space
Protocol: as §1, §2

[5] = target: Ba/F3-EGFR-D770_N771 insNPG cells (Homo sapiens, UniProt P00533, INS772GNP, cells depend on it); assay: BA/F3 (insNPG) proliferation, EGFR Exon20 insertion mutation; details: Table 9; EGFR Exon20 insertion mutations; read-out: BA/F3 (insNPG) IC50
Chain of Ba/F3-EGFR-D770_N771 insNPG cells (P00533 with tags, fused parts or gaps INS772GNP): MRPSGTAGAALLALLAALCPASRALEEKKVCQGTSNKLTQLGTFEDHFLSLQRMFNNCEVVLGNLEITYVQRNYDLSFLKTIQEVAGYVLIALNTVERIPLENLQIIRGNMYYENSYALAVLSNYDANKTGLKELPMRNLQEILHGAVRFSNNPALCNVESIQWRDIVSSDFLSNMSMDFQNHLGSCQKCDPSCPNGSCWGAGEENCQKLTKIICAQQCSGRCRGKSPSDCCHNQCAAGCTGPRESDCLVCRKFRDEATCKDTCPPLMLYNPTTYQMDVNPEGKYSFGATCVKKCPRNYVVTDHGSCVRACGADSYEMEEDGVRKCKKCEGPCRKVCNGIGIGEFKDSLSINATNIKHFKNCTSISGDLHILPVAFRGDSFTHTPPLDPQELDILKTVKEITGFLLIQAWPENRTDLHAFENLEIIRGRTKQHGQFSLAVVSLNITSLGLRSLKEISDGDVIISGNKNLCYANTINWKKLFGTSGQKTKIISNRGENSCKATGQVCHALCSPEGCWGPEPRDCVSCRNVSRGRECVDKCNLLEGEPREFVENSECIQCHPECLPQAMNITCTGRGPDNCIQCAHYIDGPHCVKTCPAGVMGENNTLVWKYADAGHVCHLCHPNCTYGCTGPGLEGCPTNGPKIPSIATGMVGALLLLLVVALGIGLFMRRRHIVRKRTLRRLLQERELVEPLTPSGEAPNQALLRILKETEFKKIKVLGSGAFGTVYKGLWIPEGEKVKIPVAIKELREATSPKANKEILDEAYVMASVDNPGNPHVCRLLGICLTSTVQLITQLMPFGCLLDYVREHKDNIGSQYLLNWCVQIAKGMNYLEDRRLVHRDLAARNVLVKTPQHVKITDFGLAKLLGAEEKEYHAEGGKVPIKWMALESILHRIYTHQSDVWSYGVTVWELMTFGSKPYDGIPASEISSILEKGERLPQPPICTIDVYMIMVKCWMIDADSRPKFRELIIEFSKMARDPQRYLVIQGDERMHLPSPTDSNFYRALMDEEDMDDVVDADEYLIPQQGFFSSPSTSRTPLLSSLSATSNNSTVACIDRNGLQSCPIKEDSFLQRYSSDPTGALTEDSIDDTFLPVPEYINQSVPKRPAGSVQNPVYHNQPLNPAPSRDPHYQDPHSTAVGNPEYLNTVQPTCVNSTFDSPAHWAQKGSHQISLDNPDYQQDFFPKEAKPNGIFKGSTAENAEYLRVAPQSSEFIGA
Protocol: as §1, §2

[6] = target: Ba/F3-EGFR-V769_D770 insASV cells (Homo sapiens, UniProt P00533, DUP767-769, cells depend on it); assay: BA/F3 (ASV) proliferation, EGFR Exon20 insertion mutation; details: Table 9; EGFR Exon20 insertion mutations; read-out: BA/F3 (ASV) IC50
Chain of Ba/F3-EGFR-V769_D770 insASV cells (P00533 with tags, fused parts or gaps DUP767-769): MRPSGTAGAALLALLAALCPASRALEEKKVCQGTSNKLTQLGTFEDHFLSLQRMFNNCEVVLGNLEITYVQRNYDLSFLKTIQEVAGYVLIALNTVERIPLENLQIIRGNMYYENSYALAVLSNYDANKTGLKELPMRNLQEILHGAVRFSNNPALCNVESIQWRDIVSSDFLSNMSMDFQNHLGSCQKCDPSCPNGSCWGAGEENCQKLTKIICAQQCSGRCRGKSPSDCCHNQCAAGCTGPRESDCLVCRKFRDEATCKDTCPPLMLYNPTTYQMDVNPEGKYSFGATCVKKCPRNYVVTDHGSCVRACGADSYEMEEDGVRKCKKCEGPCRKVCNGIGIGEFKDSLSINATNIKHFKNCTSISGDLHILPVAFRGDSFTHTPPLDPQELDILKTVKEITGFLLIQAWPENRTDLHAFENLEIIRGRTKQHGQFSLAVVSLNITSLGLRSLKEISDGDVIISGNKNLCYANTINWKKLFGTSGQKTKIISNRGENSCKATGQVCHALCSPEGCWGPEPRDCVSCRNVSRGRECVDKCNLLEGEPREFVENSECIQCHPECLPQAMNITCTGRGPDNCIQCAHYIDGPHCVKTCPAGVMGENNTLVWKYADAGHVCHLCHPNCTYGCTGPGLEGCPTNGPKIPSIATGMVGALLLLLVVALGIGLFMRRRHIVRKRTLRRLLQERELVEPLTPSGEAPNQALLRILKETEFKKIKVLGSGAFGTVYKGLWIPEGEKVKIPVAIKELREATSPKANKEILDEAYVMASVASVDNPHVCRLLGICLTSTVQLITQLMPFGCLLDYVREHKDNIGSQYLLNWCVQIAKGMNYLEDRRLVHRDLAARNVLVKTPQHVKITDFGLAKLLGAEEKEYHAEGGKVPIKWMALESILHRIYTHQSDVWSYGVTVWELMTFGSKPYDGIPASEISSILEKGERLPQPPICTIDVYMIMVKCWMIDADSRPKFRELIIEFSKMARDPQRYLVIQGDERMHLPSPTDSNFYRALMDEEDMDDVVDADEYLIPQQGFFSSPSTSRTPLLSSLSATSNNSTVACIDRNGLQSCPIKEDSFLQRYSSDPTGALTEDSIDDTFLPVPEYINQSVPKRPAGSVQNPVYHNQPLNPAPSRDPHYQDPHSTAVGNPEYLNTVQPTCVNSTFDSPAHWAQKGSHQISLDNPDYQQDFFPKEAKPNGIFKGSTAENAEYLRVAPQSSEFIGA
Protocol: as §1, §2

Ba/F3-EGFR-L858R cells = Ba/F3-EGFR-L858R cells (Homo sapiens, UniProt P00533, L858R, cells depend on it); assay: BA/F3 EGFR L858R cell survival assay, Cell Titer-Glo; details: Table 10; classical activating and uncommon EGFR mutations; read-out: BA/F3 (EGFR L858R) IC50
Chain of Ba/F3-EGFR-L858R cells (P00533 whole entry L858R): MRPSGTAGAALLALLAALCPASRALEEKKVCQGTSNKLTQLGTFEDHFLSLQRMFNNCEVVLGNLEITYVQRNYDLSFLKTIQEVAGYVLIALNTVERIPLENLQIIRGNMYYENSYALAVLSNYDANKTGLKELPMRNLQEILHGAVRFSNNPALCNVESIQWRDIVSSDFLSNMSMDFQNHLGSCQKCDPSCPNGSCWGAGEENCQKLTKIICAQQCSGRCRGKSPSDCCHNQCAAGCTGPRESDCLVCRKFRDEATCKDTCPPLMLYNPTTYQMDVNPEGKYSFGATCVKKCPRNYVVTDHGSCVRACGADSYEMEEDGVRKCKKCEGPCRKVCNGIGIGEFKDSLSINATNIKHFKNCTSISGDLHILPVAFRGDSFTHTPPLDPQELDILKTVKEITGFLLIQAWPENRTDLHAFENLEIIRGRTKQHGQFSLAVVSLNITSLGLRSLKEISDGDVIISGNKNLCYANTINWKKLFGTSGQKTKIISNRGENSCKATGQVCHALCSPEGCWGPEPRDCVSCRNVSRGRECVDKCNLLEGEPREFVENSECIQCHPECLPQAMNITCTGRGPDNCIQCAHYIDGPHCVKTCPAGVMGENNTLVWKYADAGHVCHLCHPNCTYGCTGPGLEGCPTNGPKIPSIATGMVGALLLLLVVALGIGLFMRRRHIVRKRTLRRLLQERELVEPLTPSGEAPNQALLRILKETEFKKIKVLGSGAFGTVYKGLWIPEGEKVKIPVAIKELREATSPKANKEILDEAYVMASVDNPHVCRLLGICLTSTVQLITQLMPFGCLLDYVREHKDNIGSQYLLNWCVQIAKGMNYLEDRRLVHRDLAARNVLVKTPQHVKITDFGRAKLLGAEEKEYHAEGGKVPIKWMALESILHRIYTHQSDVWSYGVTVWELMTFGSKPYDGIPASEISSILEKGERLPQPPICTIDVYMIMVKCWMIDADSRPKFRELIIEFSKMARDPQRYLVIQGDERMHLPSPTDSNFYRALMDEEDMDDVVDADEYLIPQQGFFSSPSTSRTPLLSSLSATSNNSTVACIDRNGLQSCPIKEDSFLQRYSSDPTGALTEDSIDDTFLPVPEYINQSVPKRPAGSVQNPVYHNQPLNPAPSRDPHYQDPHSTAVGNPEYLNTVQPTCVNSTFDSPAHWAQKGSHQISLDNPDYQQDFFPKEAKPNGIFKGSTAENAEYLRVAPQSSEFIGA
Protocol: as §1
(§4) Ba/F3 cells purchased from DSMZ were grown in RPMI+10% FBS+10 ng/mL IL-3 and infected with filtered retroviral supernatant at a 1:2 dilution. Polybrene was added to a concentration of 8 μg/mL, plates were spun for 90 min, and incubated overnight at 37° C. 2 μg/mL puromycin was added to the infected cells 24 h after infection and cells were continually grown in the presence of puromycin and 10 ng/mL IL-3. Following stably expressing Ba/F3 cell lines were generated: Ba/F3-EGFR-L858R, Ba/F3-EGFR-delLREA, (Ba/F3-vector-control).
(§5) For cell survival assays, Ba/F3 cells were grown to a density of 1-2 million cells per mL, spun down and resuspended in media without IL-3, and replated at a concentration 200,000-500,000 cells per mL. The cells ectopically expressing pBABEpuro empty vector were plated with 10 ng/mL IL-3.
(§6) 2 days later, cells were plated in 50 μL in a 384 well plate at a concentration of 4000 cells per well for cells assayed in the absence of IL-3 and 2000 cells per well for cells (pBABE puro empty vector) assayed in the presence of IL-3. 100 nL of compound was added to each well using a 100 nL pin head, and plates were incubated at 37° C. for 48 h.
(§7) Cell viability was measured by adding 20 μL of Cell Titer-Glo Luminescent Cell Viability Reagent diluted 1:3 in PBS. Plates were sealed with Perkin Elmer Top-Seal, inverted several times to mix, and immediately centrifuged at 1000 rpm for 2 min. Plates were incubated in low light conditions for 8-10 min and luminescence was measured.

[7] = system: Ba/F3-EGFR-delLREA cells (EGFR del19/delLREA (746-750), E746_A750del); assay: BA/F3 EGFR del19/delLREA (746-750) (E746_A750del) cell survival assay, Cell Titer-Glo; details: Table 10, classical activating and uncommon EGFR mutations, read-out: BA/F3 (EGFR E746_A750del) IC50
Protocol: as §1, §4, §5, §6, §7

[8] = system: HCC-827 cells (EGFRex19del); assay: HCC-827 cell proliferation, Cell Titer Glo, 72 h; details: Homo sapiens
Protocol: as §3, with “HCC-827 cells” for “PC9 cells”, “[…]” for “400 PC9”, “medium (RPMI1640,” for “medium (DMEM,”, “wells.” for “wells. The IC50 values were determined using the four parameter fit.”
The IC50 values were determined using the four parameter fit.

[9] = Homo sapiens, PC-9, 72 h, Table 12, several values per example
[10] = HCC827, Table 12, several values per example
[11] = Homo sapiens, PC-9, Table 12, several values per example

IC50 (PC9 cells (EGFRex19del); [9]) | IC50 (PC9 cells (EGFRex19del); Table 12, several values per example) | IC50 ([8]; HCC827, 72 h, Table 12, several values per example) | Compound | IC50 (Ba/F3-EGFR L861Q cells) | IC50 [1] | IC50 [2] | GI50 [3] | IC50 [4] | GI50 [5] | GI50 [6] | GI50 (Ba/F3-EGFR-L858R cells) | IC50 [7] | IC50 [8, 10] | IC50 (PC9 cells (EGFRex19del); [11])
< 30 nM | 51.3 nM | – | Cc1c(F)cccc1Nc1c(-c2ccncc2OC[C@@H]2CCCN2C)[nH]c2c1C(=O)NCC2 [Example 49, 3-(3-fluoro-2-methylanilino)-2-(3-{[(2S)-1-methylpyrrolidin-2-yl]methoxy}pyridin-4-yl)-1,5,6,7-tetrahydro-4H-pyrrolo[3,2-c]pyridin-4-one] | 177 nM | 3.01 nM | 7.83 nM | 231 nM | 198 nM | 115 nM | 284 nM | 22.7 nM | 11.6 nM | – | –
– | – | – | COc1c(Cl)cccc1Nc1c(-c2ccncc2OC[C@@H]2CCCO2)[nH]c2c1C(=O)NCC2 [Example 66, 3-(3-chloro-2-methoxyanilino)-2-(3-{[(2S)-oxolan-2-yl]methoxy}pyridin-4-yl)-1,5,6,7-tetrahydro-4H-pyrrolo[3,2-c]pyridin-4-one] | 9.81 nM | 0.288 nM | 1.22 nM | 6.62 nM | 15.3 nM | 5.57 nM | 6.4 nM | 0.685 nM | < 0.15 nM | < 3 nM | 0.944 nM
– | – | – | COc1c(Cl)cccc1Nc1c(-c2ccncc2OC[C@H]2CCCO2)[nH]c2c1C(=O)NCC2 [Example 67, 3-(3-chloro-2-methoxyanilino)-2-(3-{[(2R)-oxolan-2-yl]methoxy}pyridin-4-yl)-1,5,6,7-tetrahydro-4H-pyrrolo[3,2-c]pyridin-4-one] | 19 nM | 0.387 nM | 1.82 nM | 11.5 nM | 23.8 nM | 13.1 nM | 12.8 nM | 1.48 nM | 0.643 nM | < 3 nM | 1.77 nM
3.27 nM | – | < 3 nM | COc1c(F)cccc1Nc1c(-c2ccncc2OC[C@@H](C)OC)[nH]c2c1C(=O)NCC2 [Example 92, 3-(3-fluoro-2-methoxyanilino)-2-{3-[(2R)-2-methoxypropoxy]pyridin-4-yl}-1,5,6,7-tetrahydro-4H-pyrrolo[3,2-c]pyridin-4-one] | 38 nM | 0.363 nM | 1.61 nM | 14.9 nM | 25.6 nM | 13.9 nM | 17.2 nM | 1.31 nM | 0.375 nM | – | –
